Assay [1] has as its system acetylation of histone H3 (marker of HDAC1 inhibition). The assay can be described thus: Immunoblotting, acetyl-histone H3 in K562 cells. The assay is classed as cell-based, human. To be noted: 0.4 µM, 24 h. On the procedure: (§1) K562 cells were treated with the indicated concentration of the compounds or vehicle control (DMSO) for 24 h. The recovered cell pellets were lysed with RIPA buffer (50 mM Tris-HCl pH 8.0, 1% Triton X-100, 0.5% sodium deoxycholate, 0.1% SDS, 150 mM sodium chloride, and 2 mM EDTA), supplemented with protease and phosphatase inhibitors (Thermofischer Scientific, Waltham, MA, USA). An equal amount of total protein (20 µg) was resolved by SDS-PAGE and followed by transfer on nitrocellulose membrane (Sigma-Aldrich). PageRuler prestained protein ladder, 10 kDa to 180 kDa (Thermofisher Scientific, Waltham, MA, USA) was used as a protein molecular weight marker.

For assay [2], the system named is acetylation of α-tubulin (marker of HDAC6 inhibition). The experiment in a line: Immunoblotting, acetyl-α-tubulin in K562 cells. Format: cell-based, human. To be noted: 0.4 µM, 24 h. The protocol:
as §1
On the technique in general: A western blot detects proteins with antibodies after separation by electrophoresis.

In assay [3] the test system is A2780 cells. The experiment in a line: MTT cell viability assay. Format: cell-based. To be noted: Homo sapiens, 72 h, n ≥ 3 in triplicate, mean ± SD. On the procedure:
Reagents were obtained from PAN Biotech, Aidenbach Germany. The cell line was cultured at 37 °C under humidified air with 5% CO2 to a confluence of 80–90% before being used for further assays.
Intrinsic cytotoxicity of test compounds was determined by an MTT assay as previously described. A2780 cells were seeded in 96-well plates (Starlab GmbH, Hamburg, Germany) at a density of 20,000 cells/well and allowed to attach for 12 h. Cells were then treated with increasing concentrations of the test compounds. After 72 h, MTT (3-(4,5-dimethylthiazol-2-yl)-2,5-diphenyltetrazolium bromide) (BioChemica, Applichem GmbH, Darmstadt, Germany) solution (5 mg/mL in phosphate-buffered saline) was added to determine cell survival. The formazan dye was dissolved in DMSO (Sigma-Aldrich, Darmstadt, Germany) after 1 h. Absorbance was measured at 570 nm and 690 nm in a Multiskan microplate photometer (Thermo Fisher Scientific, Waltham, MA, USA). Concentration-response curves were generated using the four-parameter logistic equation (GraphPad Prism 9.0, San Diego, USA), and mean IC50 values were calculated in triplicates based on at least three different experiments.
On the technique in general: Tetrazolium assays rely on reduction of a dye to a coloured formazan, in cell work by metabolically active cells.

Assay [4] relates to P. falciparum 3D7. The assay can be described thus: microbe, parasite or virus in culture. Format: cell-based. To be noted: Plasmodium falciparum, 3D7, 72 h; asexual blood stages, three days incubation; n ≥ 2 in duplicate, mean ± SD; read-out: Pf3D7 IC50. On the procedure:
(§2) [38, 39] […] After three days of incubation at 37 °C, 5% CO2 and 5% O2 plates were frozen until analyzed by HRP2-ELISA. All compounds were evaluated in duplicate in at least two independent experiments. The IC50 was determined by nonlinear regression analysis of log concentration-response curves using the drc-package v3.0.1 [40] of R v4.0.5..

The test system of assay [5] is P. falciparum Dd2. The experiment in a line: microbe, parasite or virus in culture. Format: cell-based. To be noted: Plasmodium falciparum, DD2, 72 h, read-out: PfDd2 IC50. On the procedure:
as §2

For assay [6], the system named is K562 cells. The experiment in a line: CellTiter-Glo cell viability assay, K562. The assay is classed as cell-based, human. To be noted: Homo sapiens, K562; CML; 72 h, CellTiter-Glo, n = 3. The protocol: (§3) Healthy individually-derived fibroblasts were cultured in DMEM supplemented with 10% FCS. Regular cell line authentication was performed short tandem repeat (STR) analysis (DNA fingerprinting), followed by comparison with the original DSMZ cell line database.
(§4) Cell viability assay was performed with leukemic cell lines after 72 h incubation with the respective inhibitors using ATP-based CellTiter-Glo luminescent assay (Promega, Madison, WI, USA).
A general note: In ATP-based viability assays light output follows the ATP content of the culture.

In assay [7] the test system is P. falciparum Dd2 R539T. The assay can be described thus: In vitro P. falciparum growth inhibition assay (HRP2), Dd2 R539T. Format: cell-based. To be noted: Plasmodium falciparum, DD2, 72 h, read-out: PfDd2 R539T IC50. On the procedure:
Antiplasmodial activity of DHA–HDACi hybrids was evaluated against the asexual stages of the laboratory P. falciparum strains (3D7, chloroquine-sensitive strain, and Dd2, chloroquine-resistant strain, and Dd2 R539T (MRA-1255), provided by BEI Resources carrying a kelch13-mutation that conveys partial artemisinin resistance), using the histidine-rich protein 2 (HRP2) assay, as previously described. In brief: 96-well plates were precoated with the tested compounds in a three-fold serial dilution before ring-stage parasites were added in complete culture medium at a hematocrit of 1.5% and a parasitaemia of 0.05%. After three days of incubation at 37 °C, 5% CO2 and 5% O2 plates were frozen until analyzed by HRP2-ELISA. All compounds were evaluated in duplicate in at least two independent experiments. The IC50 was determined by nonlinear regression analysis of log concentration-response curves using the drc-package v3.0.1 [40] of R v4.0.5..

Assay [8] relates to NALM6 cells. The experiment in a line: CellTiter-Glo cell viability assay, NALM6. Format: cell-based, human. To be noted: Homo sapiens, NALM-6; B-ALL; 72 h, CellTiter-Glo, n = 3. On the procedure:
as §3, §4

Assay [9] has as its system HPBALL cells. The experiment in a line: CellTiter-Glo cell viability assay, HPBALL. The assay is classed as cell-based, human. To be noted: Homo sapiens, HPBALL; T-ALL; 72 h, CellTiter-Glo, n = 3. On the procedure: as §3, §4
The subject of assay [10] is MOLM13 cells. The experiment in a line: CellTiter-Glo cell viability assay, MOLM13. The assay is classed as cell-based, human. To be noted: Homo sapiens, MOLM-13; AML; 72 h, CellTiter-Glo, n = 3. The protocol:
as §3, §4

Assay [11] deals with T1, human HDAC6 (hHDAC6) (Homo sapiens, UniProt Q9UBN7).
T1 construct: purchased BPS Bioscience Inc. 50006
T1 sequence (Q9UBN7 1-1215): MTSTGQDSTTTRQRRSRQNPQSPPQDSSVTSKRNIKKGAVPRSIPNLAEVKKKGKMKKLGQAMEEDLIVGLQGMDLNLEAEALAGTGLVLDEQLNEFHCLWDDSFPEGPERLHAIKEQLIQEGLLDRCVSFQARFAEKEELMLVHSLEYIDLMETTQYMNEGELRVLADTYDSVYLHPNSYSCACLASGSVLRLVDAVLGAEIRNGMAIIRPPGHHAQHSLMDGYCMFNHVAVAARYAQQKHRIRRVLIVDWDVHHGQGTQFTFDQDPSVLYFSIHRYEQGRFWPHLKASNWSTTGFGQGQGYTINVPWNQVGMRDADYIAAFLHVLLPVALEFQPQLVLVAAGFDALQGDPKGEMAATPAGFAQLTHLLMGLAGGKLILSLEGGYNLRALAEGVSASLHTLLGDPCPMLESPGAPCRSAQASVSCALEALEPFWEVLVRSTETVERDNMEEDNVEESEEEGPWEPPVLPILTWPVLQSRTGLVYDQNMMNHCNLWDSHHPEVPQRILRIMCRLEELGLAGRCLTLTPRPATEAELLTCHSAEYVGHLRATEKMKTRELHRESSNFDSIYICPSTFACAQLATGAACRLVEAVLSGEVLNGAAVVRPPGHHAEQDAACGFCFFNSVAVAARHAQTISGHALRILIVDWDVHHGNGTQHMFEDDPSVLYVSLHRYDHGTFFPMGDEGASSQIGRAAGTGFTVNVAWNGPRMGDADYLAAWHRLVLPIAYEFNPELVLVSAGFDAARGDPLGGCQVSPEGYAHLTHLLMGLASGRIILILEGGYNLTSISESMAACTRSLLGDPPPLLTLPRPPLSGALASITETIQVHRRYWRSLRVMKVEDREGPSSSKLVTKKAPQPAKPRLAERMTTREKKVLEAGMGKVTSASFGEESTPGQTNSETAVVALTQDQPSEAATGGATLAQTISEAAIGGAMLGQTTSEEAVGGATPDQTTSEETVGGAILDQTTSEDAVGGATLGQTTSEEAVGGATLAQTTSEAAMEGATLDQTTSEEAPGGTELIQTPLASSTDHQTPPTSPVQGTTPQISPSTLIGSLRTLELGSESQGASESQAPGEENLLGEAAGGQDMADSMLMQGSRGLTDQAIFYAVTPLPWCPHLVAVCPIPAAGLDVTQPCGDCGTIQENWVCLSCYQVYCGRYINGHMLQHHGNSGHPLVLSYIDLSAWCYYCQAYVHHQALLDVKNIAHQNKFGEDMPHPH
The assay can be described thus: In vitro human HDAC6 assay (ZMAL substrate). Format: biochemical. To be noted: for SI 1/6: Selectivity Index = (hHDAC1 IC50)/(hHDAC6 IC50). On the procedure: (§5) OptiPlate-96 black microplates (Perkin Elmer Inc., Waltham, MA, USA) were used with an assay volume of 50 µL. […] After an incubation time of 90 min, 50 µL of 0.4 mg/mL trypsin in trypsin buffer (50 mM Tris-HCl, pH 8.0, and 100 mM NaCl) was added, followed by further incubation at 37 °C for 30 min.

Assay [12] has as its target T2, human HDAC1 (hHDAC1) (Homo sapiens, UniProt Q13547).
T2 construct: purchased BPS Bioscience Inc. 50051
The assay can be described thus: In vitro human HDAC1 assay (ZMAL substrate). Format: biochemical. On the procedure: as §5

In assay [13] the test system is HL60 cells. The experiment in a line: CellTiter-Glo cell viability assay, HL60. The assay is classed as cell-based, human. To be noted: Homo sapiens, HL-60; AML; 72 h, CellTiter-Glo, n = 3. On the procedure: as §3, §4

T2 sequence (Q13547 whole entry): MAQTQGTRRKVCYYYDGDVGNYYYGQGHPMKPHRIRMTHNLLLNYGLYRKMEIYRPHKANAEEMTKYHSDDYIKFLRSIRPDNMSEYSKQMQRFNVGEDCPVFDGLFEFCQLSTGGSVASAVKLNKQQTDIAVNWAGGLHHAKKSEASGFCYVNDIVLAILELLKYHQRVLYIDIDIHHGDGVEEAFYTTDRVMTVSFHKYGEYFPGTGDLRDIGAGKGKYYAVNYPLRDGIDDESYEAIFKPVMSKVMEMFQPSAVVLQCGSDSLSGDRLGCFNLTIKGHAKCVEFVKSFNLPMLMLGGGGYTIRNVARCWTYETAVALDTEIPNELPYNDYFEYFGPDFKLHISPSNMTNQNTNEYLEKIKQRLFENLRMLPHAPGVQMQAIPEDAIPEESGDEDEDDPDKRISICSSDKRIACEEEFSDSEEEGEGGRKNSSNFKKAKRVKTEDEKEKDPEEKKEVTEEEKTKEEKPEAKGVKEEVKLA

`O=C(CCCCCCC(=O)Nc1ccccc1)NO` [Vorinostat, vorinostat]: the “acetylation of histone H3 (immunoblot)” value in assay [1] is “caused hyperacetylation of α-tubulin and histone H3”. In [2], the “acetylation of α-tubulin (immunoblot)” value was “caused hyperacetylation of α-tubulin and histone H3”.

One may read the IC50 as the concentration needed to halve the response being measured. `C[C@H]1[C@H](OCc2ccc(C(=O)NO)cc2)O[C@@H]2O[C@@]3(C)CC[C@H]4[C@H](C)CC[C@@H]1[C@@]24OO3` [Compound 7d, N-Hydroxy-4-((((3R,5aS,6R,8aS,9R,10R,12R,12aR)-3,6,9-trimethyldecahydro-12H-3,12-epoxy[1,2]dioxepino[4,3-i]isochromen-10-yl)oxy)methyl)benzamide]: the IC50 in assay [3] stood at 1310 ± 320 nM; in [4], 2.8 ± 1.3 nM; in assay [5] it was 2 ± 0.7 nM; in assay [6], 1000 ± 360 nM; in assay [7], 1.2 ± 0.8 nM; in assay [8], 360 ± 50 nM. The IC50 in assay [9] stood at 6.81 ± 0.54 µM; in assay [10] it was 390 ± 50 nM; in assay [11], 14 ± 2 nM; in assay [12], 2490 ± 240 nM; in [13], 2410 ± 450 nM. Also, the “SI 1/6” value in assay [11] came to 178.

Take `C[C@@H]1CC[C@H]2[C@@H](C)C(SCCCCCC(=O)NO)O[C@@H]3O[C@@]4(C)CC[C@@H]1[C@]32OO4` (stereo partly drawn) [Compound 7b, N-Hydroxy-6-(((3R,5aS,6R,8aS,9R,12S,12aR)-3,6,9-trimethyldecahydro-12H-3,12-epoxy[1,2]dioxepino[4,3-i]isochromen-10-yl)thio)hexanamide]: the half-maximal inhibitory concentration (IC50) was found to be 1520 ± 50 nM in assay [3]; 5.2 ± 0.4 nM in assay [4]; 6.6 ± 2.5 nM in [5]; 910 ± 320 nM in assay [6]; 3 ± 1.2 nM in assay [7]; 260 ± 10 nM in [8]. Moreover, the IC50 in assay [9] was 2.41 ± 0.38 µM; in assay [10] it was 580 ± 190 nM; in [11], 45 ± 5 nM; in [12], 430 ± 46 nM; in assay [13] it was 2070 ± 30 nM. The “SI 1/6” value in [11] was 10.

The record behind these values is PMC8952208, “Synthesis, Antiplasmodial, and Antileukemia Activity of Dihydroartemisinin–HDAC Inhibitor Hybrids as Multitarget Drugs” (Pharmaceuticals, 2022).
